Biological target: recombinant rat mGluR5 (Rattus norvegicus (Rat), UniProt P31424)
Experiment: Functional calcium flux assay (FLIPR)
Assay type: cell-based
Conditions: HEK293 cells stably expressing recombinant rat mGluR5; inhibition of glutamate-evoked [Ca2+]i increase, 15 min incubation of test compound
Experimental: For functional assays, HEK293 cells stably expressing recombinant rat mGluR5 were seeded in 384-well plates and dye loaded using Fluo-8. Cells were then washed to remove the un-incorporated dye. Antagonist evaluation was performed following a 15 min incubation of the test compound followed by the addition of submaximal concentration of glutamate. Intracellular calcium ([Ca^2+]i) measurements were performed using a fluorometric imaging plate reader (FLIPR, Molecular Devices). The glutamate-evoked increase in [Ca^2+]i in the presence of the test compounds was compared to the response to glutamate alone (the positive control). Antagonist inhibition curves were fitted with a 4-parameter logistic equation giving IC50 values, and Hill coefficients using an iterative nonlinear curve fitting algorithm.
The tables below provide IC50 data in this assay. In the activity column, A=IC50>1,000 and <5,000 nM; B=IC50>500 and <1,000 nM and C=IC50<500 nM.

Chain of recombinant rat mGluR5 (P31424 21-1203): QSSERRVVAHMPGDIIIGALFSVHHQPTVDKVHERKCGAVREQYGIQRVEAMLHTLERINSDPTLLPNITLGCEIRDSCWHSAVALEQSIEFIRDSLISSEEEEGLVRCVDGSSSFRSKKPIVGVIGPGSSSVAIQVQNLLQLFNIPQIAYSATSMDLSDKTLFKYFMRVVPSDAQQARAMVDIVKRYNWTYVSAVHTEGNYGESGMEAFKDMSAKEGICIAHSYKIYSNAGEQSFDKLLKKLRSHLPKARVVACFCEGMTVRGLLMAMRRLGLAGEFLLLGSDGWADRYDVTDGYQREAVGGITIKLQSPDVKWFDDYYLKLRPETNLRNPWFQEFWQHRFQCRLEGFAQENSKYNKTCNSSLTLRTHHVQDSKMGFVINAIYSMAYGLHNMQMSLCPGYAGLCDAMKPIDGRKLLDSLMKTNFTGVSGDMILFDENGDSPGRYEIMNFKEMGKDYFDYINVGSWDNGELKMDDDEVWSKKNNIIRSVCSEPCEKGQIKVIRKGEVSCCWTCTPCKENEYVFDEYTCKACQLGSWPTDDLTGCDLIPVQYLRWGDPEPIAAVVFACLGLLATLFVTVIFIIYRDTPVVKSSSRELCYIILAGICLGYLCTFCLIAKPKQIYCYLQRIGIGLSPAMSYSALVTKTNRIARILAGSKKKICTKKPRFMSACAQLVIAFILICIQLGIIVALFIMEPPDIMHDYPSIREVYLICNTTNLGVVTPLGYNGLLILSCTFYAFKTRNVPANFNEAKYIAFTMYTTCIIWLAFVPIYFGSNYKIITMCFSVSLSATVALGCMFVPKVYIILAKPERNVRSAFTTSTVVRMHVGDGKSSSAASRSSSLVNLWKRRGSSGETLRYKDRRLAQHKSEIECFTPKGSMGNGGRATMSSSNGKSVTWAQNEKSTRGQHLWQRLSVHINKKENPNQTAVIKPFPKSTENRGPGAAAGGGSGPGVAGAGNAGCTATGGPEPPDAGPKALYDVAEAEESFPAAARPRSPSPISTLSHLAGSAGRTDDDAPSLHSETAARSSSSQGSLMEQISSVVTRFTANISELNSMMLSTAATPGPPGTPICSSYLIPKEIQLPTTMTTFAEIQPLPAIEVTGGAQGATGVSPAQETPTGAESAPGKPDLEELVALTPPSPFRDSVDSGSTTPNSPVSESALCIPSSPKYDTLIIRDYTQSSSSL

Structure (SMILES)	IC50 [nM]
O=S(=O)(c1cccc(Cl)c1)N1CC2CC2(C#Cc2ccccn2)C1 (centres unmarked) [Example Compound 34, 3-((3-chlorophenyl)sulfonyl)-1-(pyridin-2-ylethynyl)-3-azabicyclo[3.1.0]hexane]	< 500
Cc1nc(C#CC23CC2CN(C(=O)c2cccc(Cl)c2)C3)cs1 (centres unmarked) [Example Compound 49, (3-chlorophenyl)-(1-((2-methylthiazol-4-yl)ethynyl)-3-azabicyclo[3.1.0]hexan-3-yl)methanone]	< 500
O=S(=O)(c1ccccc1Cl)N1CC2CC2(C#Cc2ccccn2)C1 (centres unmarked) [Example Compound 36, 3-((2-chlorophenyl)sulfonyl)-1-(pyridin-2-ylethynyl)-3-azabicyclo[3.1.0]hexane]	< 500
Cc1cccnc1C#CC12CC1CN(c1cc(F)cc(C#N)c1)C2 (centres unmarked) [Example Compound 9]	1000 to 5000
Fc1ccccc1N1CC2CC2(C#Cc2ccccn2)C1 (centres unmarked) [Example Compound 16, 3-(2-fluorophenyl)-1-(pyridin-2-ylethynyl)-3-azabicyclo[3.1.0]hexane]	< 500
Cc1cccc(C#CC23CC2CN(C(=O)c2cccc(F)c2)C3)n1 (centres unmarked) [Example Compound 44, (3-fluorophenyl)-(1-((6-methylpyridin-2-yl)ethynyl)-3-azabicyclo[3.1.0]hexan-3-yl)methanone]	< 500
O=C(C1CCCC1)N1C[C@H]2C[C@@]2(C#Cc2ccccn2)C1 [Example Compound 51, cyclopentyl((1R,5S)-1-(pyridin-2-ylethynyl)-3-azabicyclo[3.1.0]hexan-3-yl)methanone]	< 500
Cc1nc(C#CC23CC2CN(C(=O)C(C)C)C3)cs1 (centres unmarked) [Example Compound 68, 2-methyl-1-(1-((2-methylthiazol-4-yl)ethynyl)-3-azabicyclo[3.1.0]hexan-3-yl)propan-1-one]	< 500
Fc1cc(Cl)ccc1N1CC2CC2(C#Cc2ccccn2)C1 (centres unmarked) [Example Compound 21, 3-(4-chloro-2-fluorophenyl)-1-(pyridin-2-ylethynyl)-3-azabicyclo[3.1.0]hexane]	500 to 1000
O=C(c1cncc(Cl)c1)N1C[C@H]2C[C@@]2(C#Cc2ccccn2)C1 [Example Compound 54, (5-chloropyridin-3-yl)((1R,5S)-1-(pyridin-2-ylethynyl)-3-azabicyclo[3.1.0]hexan-3-yl)methanone]	< 500
O=S(=O)(c1ccccc1F)N1CC2CC2(C#Cc2ccccn2)C1 (centres unmarked) [Example Compound 42, 3-((2-fluorophenyl)sulfonyl)-1-(pyridin-2-ylethynyl)-3-azabicyclo[3.1.0]hexane]	< 500
Fc1cc(Cl)cc(N2CC3CC3(C#Cc3ccccn3)C2)c1 (centres unmarked) [Example Compound 20, 3-(3-chloro-5-fluorophenyl)-1-(pyridin-2-ylethynyl)-3-azabicyclo[3.1.0]hexane]	< 500
Cc1nc(C#CC23CC2CN(c2cc(F)cc(C#N)c2)C3)cs1 (centres unmarked) [Example Compound 39, 3-fluoro-5-(1-((2-methylthiazol-4-yl)ethynyl)-3-azabicyclo[3.1.0]hexan-3-yl)benzonitrile]	< 500
N#Cc1ccnc(N2CC3CC3(C#Cc3ccccn3)C2)c1 (centres unmarked) [Example Compound 23, 2-(1-(pyridin-2-ylethynyl)-3-azabicyclo[3.1.0]hexan-3-yl)isonicotinonitrile]	< 500
Fc1cccc(N2CC3CC3(C#Cc3ncccn3)C2)c1 (centres unmarked) [Example Compound 46, 3-(3-fluorophenyl)-1-(pyrimidin-2-ylethynyl)-3-azabicyclo[3.1.0]hexane]	< 500
O=S(=O)(c1ccccc1)N1CC2CC2(C#Cc2ccccn2)C1 (centres unmarked) [Example Compound 5, 3-(phenylsulfonyl)-1-(pyridin-2-ylethynyl)-3-azabicyclo[3.1.0]hexane]	< 500
N#Cc1cc(F)cc(N2CC3CC3(C#Cc3cnccn3)C2)c1 (centres unmarked) [Example Compound 7, 3-fluoro-5-(1-(pyrazin-2-ylethynyl)-3-azabicyclo[3.1.0]hexan-3-yl) benzonitrile]	< 500
